Experimental findings from patent US8796271B2, “Heteroaryls and uses thereof” (Millennium Pharmaceuticals, Inc., priority 2010, dated 2014) are described below.

What all share (type): biochemical
One test addresses T1, PI3K gamma (Homo sapiens, UniProt P48736).
T1 construct: His (N); host or cells: SF9 cells (baculovirus)
In words: Human PI3K gamma enzyme assay (HTRF). The source says:
(§1) The catalytic subunits of PI3Ks are cloned into either pDEST8 (p110 alpha) or pDEST10 (p110beta, p110delta, and p110gamma) as N-terminal His tagged fusion proteins using the Gateway system (Invitrogen, catalog #11804-010 for pDEST8 and 11806-015 for pDEST10). The sequences are verified before recombinant protein expression using the Baculovirus Expression System with Gateway® Technology. The accession numbers for the subunits are as follows:
(§2) For expression of the p110 complexes, the p85 (MOI of 4) is co-infected with p110 alpha, beta, and delta respectively (1MOI) in SF9 cells and harvested at 60 hours post co-infection. P110 gamma was infected at 1 MOI and harvested at 60 hours post infection.
(§3) For purification, PI3Ks are purified by Ni-NTA Agarose (Qiagen #30250) followed by Mono Q 10/100 GL (Ge Healthcare #17-5167-01). VPS34 is purified by Glutathione Sepharose 4 Fast Flow (GE Healthcare #17-5132-03) followed by HiTrap Q (GE Healthcare #17-1153-01).
(§4) 0.5 uL compounds in DMSO are added to wells of a 384 well microtitre plate (Corning 3575). At room temperature: 10 ul PI3K reaction buffer (50 mM Hepes, 5 mM DTT, 150 mM NaCl, 10 mM beta-glycerophosphate, 10 mM MgCl2, 0.25 mM sodium cholate and 0.001% CHAPS, pH 7.00) containing ATP (25 uM, Promega) is added followed immediately by 10 ul PI3K reaction buffer containing di-C8 PI(4,5)P2 (3.5 uM, CellSignals) and PI3Kalpha (0.4875 nM, Millennium Protein Sciences Group) and the mixture is incubated with shaking at room temperature for 30 minutes. Then 5 ul PI3K stop mix (50 mM Hepes, 5 mM DTT, 150 mM NaCl, 0.01% Tween-20, 15 mM EDTA and 25 nM biotin-PI(3,4,5)P3 (Echelon) is added to quench the reaction followed immediately by addition of 5 ul HTRF detection mix (50 mM Hepes, 5 mM DTT, 150 mM NaCl, 0.01% Tween-20, 40 mM KF, 10 nM GST:GRP-1 PH domain (Millennium Protein Sciences Group), 15 nM Streptavidin-XL (CisBio) and 0.375 nM anti-GST Eu++ antibody (CisBio) at pH 7.00). The plates are then incubated for 1 hour at room temperature with shaking and then read on a BMG PheraStar Plus reader.
(§5) 2) Human PI3K beta, delta and gamma isoforms are tested using the procedure described for PI3K alpha above but with the following changes: PI3K beta (5.25 nM), PI3K delta (0.75 nM) and PI3K gamma (5 nM). All isoforms supplied by Millennium Protein Science Group.
(§6) For the assay methods described above, test compound percent inhibition, at various concentrations, is calculated relative to control (DMSO and EDTA) treated samples. Compound concentration versus percent inhibition curves are fitted to generate IC50 values. One skilled in the art will appreciate that the values generated either as percentage inhibition at a single concentration or IC50 values are subject to experimental variation.
A general note: Time-resolved FRET reads energy transfer from a long-lived donor to a nearby acceptor.

The target in the next test is T2, PI3Kalpha (Homo sapiens, UniProt P42336).
T2 construct: His (N); host or cells: SF9 cells (baculovirus)
The test can be described thus: Human PI3K alpha enzyme assay (HTRF).
Description: as §1, §2, §3
1) Human PI3K Alpha Enzyme Assay Method
as §4, §6

The target in the next test is T3, VPS34 (Homo sapiens, UniProt Q8NEB9).
T3 construct: GST (N); host or cells: SF9 cells (baculovirus)
The test can be described thus: Human VPS34 enzyme assay (Adapta Universal Kinase Assay). Conditions: 1 h; at a 1.0 μM concentration; read-out: VPS34 Percent Inhibition. As to the method: VPS34 (accession number GB:BC033004) is cloned into pDEST20-Thombin as N-terminal GST tagged fusion proteins using the Gateway system (Invitrogen, catalog #11804-013). The sequences are verified before recombinant protein expression using the Baculovirus Expression System with Gateway® Technology.
For expression VPS34 was infected at 1MOI in SF9 cells and harvested 72 hours post infection.
For purification, VPS34 is purified by Glutathione Sepharose 4 Fast Flow (GE Healthcare #17-5132-03) followed by HiTrap Q (GE Healthcare #17-1153-01).
3) VPS34 is assayed using Adapta™ Universal Kinase Assay Kit (Invitrogen).
4) Human VPS34 enzyme assay method
100 nL compounds in DMSO are added to wells of a 384 well microtitre plate (Greiner 780076). […] The plates are then incubated for 30 minutes at room temperature with shaking and then read on a BMG PheraStar Plus reader.
For the assay methods described above, test compound percent inhibition, at various concentrations, is calculated relative to control (DMSO and EDTA) treated samples. […]

Another test has as its target T4, PI3K beta (Homo sapiens, UniProt P42338).
T4 construct: His (N); host or cells: SF9 cells (baculovirus)
The test can be described thus: Human PI3K beta enzyme assay (HTRF).
Description: as §1, §2, §3, §4, §5, §6

The target of a further test is T5, PI3K delta (Homo sapiens, UniProt O00329).
T5 construct: His (N); host or cells: SF9 cells (baculovirus)
In words: Human PI3K delta enzyme assay (HTRF).
Description: as §1, §2, §3, §4, §5, §6

The mark [1] stands for this setting: at a 1.0 μM concentration, read-out: PI3Kγ Percent Inhibition.
The mark [2] stands for this setting: at a 1.1 μM concentration, read-out: PI3Kα Percent Inhibition.
Where [3] appears, read: at a 1.1 μM concentration, read-out: PI3Kβ Percent Inhibition.
Setting [4] is: at a 1.0 μM concentration, read-out: PI3Kδ Percent Inhibition.
[5] abbreviates: concentration not given, b1433 gives 1.0 μM for PI3K δ and γ, read-out: p110 gamma Percent Inhibition.
Setting [6] is: concentration not given, read-out: p110 alpha Percent Inhibition.
Setting [7] is: concentration not given, read-out: p110 beta Percent Inhibition.
[8] abbreviates: concentration not given, b1433 gives 1.0 μM for PI3K δ and γ, read-out: p110 delta Percent Inhibition.

Where two headings read alike, the source gives them in different places.

T1 sequence (P48736 whole entry): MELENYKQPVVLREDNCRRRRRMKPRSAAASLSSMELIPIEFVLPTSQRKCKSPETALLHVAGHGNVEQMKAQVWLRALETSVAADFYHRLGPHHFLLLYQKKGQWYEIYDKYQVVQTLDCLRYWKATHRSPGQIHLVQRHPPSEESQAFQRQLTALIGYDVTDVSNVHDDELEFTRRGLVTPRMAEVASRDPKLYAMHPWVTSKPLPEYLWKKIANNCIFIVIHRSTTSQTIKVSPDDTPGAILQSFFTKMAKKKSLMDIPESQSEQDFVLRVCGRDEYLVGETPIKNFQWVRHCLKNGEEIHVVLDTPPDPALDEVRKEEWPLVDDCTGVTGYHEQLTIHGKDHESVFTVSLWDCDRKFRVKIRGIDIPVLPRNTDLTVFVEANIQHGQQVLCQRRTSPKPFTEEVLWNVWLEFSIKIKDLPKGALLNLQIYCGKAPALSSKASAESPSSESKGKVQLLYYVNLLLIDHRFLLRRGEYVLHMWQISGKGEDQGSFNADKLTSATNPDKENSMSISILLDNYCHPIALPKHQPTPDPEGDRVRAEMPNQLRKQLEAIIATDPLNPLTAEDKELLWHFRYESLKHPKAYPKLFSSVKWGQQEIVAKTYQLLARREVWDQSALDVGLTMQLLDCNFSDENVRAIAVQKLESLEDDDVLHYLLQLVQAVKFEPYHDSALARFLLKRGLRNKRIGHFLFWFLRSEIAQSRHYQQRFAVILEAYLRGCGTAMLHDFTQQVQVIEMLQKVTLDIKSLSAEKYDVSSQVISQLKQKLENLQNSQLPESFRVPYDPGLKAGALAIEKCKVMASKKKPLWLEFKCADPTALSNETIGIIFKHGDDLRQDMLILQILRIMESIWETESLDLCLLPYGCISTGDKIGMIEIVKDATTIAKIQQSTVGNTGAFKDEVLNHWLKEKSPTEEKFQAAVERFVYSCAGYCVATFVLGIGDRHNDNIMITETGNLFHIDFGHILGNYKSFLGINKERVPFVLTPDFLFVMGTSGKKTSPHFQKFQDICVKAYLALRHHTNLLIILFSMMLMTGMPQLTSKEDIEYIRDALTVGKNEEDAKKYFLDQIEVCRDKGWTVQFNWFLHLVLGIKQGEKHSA
T4 sequence (P42338 whole entry): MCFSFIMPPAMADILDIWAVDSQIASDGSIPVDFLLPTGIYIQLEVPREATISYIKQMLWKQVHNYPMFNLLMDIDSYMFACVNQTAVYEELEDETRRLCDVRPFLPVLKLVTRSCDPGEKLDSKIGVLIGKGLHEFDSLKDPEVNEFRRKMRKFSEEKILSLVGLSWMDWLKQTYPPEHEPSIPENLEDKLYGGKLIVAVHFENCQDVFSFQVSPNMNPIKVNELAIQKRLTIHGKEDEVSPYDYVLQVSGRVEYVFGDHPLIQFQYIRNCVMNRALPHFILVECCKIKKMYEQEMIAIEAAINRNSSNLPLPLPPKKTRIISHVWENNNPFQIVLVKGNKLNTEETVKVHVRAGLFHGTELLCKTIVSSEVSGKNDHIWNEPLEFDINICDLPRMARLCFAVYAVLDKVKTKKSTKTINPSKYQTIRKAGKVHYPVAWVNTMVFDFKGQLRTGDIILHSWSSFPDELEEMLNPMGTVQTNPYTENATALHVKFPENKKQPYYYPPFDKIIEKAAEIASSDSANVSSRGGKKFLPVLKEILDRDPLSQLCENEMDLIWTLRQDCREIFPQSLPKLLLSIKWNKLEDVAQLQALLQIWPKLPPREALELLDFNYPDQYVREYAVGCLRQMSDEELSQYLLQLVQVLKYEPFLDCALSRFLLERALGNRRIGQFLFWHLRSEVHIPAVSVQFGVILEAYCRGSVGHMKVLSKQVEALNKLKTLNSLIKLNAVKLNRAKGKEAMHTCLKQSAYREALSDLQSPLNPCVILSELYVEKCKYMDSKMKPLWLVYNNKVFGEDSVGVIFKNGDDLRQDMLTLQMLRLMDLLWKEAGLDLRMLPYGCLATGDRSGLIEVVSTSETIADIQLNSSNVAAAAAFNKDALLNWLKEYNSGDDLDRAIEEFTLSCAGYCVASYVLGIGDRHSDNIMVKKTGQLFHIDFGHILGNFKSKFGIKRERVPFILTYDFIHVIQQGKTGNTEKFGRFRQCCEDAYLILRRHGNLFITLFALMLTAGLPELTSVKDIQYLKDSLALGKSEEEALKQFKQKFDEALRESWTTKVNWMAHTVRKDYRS
T4 sequence (P27986 whole entry partner): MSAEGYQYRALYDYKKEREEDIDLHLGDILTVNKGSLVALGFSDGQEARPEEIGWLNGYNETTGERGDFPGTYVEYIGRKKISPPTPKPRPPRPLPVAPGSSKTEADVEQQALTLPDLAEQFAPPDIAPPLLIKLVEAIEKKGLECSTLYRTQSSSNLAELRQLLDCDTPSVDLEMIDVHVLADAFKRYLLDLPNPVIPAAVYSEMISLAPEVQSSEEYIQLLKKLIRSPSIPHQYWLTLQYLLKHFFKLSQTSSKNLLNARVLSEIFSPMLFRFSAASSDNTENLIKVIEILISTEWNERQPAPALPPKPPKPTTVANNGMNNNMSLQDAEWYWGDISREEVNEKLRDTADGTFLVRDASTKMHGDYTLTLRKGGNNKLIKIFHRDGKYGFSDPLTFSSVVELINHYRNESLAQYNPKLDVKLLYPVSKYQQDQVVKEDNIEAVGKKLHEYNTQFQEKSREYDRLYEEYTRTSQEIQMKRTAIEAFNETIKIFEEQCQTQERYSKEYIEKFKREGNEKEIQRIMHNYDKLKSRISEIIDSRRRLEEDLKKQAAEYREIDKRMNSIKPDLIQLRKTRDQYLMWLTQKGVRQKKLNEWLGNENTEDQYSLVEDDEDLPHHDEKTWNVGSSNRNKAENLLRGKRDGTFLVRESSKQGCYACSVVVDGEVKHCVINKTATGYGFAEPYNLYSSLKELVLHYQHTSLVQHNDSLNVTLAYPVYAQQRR
T2 sequence (P42336 whole entry): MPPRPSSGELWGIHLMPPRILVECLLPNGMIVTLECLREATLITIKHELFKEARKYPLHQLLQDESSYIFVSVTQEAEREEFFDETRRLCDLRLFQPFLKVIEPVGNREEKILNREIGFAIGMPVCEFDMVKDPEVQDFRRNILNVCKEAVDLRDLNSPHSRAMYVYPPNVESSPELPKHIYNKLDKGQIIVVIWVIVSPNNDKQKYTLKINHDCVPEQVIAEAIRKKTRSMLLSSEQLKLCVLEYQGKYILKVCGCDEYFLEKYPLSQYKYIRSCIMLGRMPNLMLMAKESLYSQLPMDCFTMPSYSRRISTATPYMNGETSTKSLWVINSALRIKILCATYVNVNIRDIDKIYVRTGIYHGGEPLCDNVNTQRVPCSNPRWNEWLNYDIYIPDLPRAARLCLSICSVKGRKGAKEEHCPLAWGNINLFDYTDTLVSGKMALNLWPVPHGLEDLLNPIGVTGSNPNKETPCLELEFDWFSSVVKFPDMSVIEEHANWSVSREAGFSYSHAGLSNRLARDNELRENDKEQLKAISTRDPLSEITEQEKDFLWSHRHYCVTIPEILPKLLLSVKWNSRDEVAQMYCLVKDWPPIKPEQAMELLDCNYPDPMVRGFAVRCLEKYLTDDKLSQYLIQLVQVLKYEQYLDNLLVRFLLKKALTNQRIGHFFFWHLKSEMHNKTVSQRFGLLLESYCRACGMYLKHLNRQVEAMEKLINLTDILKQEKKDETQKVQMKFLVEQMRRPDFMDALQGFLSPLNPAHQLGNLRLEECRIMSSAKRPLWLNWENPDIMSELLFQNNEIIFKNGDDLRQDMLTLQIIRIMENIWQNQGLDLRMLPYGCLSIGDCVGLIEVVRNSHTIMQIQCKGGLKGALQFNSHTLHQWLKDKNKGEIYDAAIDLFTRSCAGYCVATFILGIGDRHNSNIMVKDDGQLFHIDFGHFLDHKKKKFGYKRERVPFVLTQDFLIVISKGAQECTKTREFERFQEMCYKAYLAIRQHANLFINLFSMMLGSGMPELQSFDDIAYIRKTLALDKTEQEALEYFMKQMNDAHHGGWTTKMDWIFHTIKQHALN
T2 sequence (P27986 whole entry partner): as the sequence (P27986 whole entry partner) above
T5 sequence (O00329 whole entry): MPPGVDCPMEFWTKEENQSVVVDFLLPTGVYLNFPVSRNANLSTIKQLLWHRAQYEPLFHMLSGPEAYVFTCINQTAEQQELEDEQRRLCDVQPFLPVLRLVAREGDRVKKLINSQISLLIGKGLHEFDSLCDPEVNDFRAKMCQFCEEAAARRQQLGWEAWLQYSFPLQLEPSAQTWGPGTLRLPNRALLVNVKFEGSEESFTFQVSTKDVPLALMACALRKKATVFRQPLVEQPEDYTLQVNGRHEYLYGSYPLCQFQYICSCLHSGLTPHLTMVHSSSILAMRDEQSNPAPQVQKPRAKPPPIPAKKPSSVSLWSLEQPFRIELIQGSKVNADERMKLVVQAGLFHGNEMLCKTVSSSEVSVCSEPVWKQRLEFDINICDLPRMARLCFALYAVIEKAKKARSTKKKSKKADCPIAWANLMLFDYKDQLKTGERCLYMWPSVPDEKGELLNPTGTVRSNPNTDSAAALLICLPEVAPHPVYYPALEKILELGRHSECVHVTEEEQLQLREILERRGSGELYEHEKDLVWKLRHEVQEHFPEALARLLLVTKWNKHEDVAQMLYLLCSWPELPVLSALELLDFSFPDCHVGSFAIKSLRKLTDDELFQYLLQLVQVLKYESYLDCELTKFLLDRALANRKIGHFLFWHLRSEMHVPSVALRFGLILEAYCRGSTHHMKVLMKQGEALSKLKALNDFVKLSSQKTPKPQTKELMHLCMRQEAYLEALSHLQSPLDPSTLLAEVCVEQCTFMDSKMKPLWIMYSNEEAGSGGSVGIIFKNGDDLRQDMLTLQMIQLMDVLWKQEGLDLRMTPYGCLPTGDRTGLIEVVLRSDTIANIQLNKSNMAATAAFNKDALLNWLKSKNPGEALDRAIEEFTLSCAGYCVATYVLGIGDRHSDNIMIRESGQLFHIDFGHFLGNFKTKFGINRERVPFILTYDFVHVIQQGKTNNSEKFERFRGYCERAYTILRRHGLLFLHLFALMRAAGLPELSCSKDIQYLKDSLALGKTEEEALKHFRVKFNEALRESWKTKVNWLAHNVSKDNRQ
T5 sequence (P27986 whole entry partner): as the sequence (P27986 whole entry partner) above

For `N#Cc1c(N2CCOCC2)sc(C(=O)O)c1Cc1ccc(OC(F)(F)F)cc1` [Compound 102], the values for the inhibition at 1 µM on PI3K gamma (setting [1]), at VPS34 and on PI3K delta (setting [4]) were 6.8%, 28.2% and 38.1%, respectively. The inhibition at 1.1 µM worked out at 30% at PI3Kalpha (setting [2]) and 78% at PI3K beta (setting [3]).

As for `N#Cc1c(N2CCOCC2)sc(C(=O)O)c1Cc1cc(F)c(F)cc1F` [Compound 107], the inhibition at 1 µM amounted to 20.2% on PI3K gamma (setting [1]), 45.8% at VPS34 and 87.3% at PI3K delta (setting [4]). Further, the inhibition at 1.1 µM on PI3Kalpha (setting [2]) amounted to 49%; on PI3K beta (setting [3]), 103%.

With `OC(c1cc(Br)cs1)c1cc(-c2ccncc2)sc1-c1nnc[nH]1` (stereo not shown) [Compound 233], the inhibition at 1 µM is 28% at PI3K gamma (setting [5]) and 74% on PI3K delta (setting [8]). Besides, the inhibition at 1.1 µM at PI3Kalpha (setting [6]) is 61%; at PI3K beta (setting [7]), 97%.

As to `COc1cccc(C(O)c2cc(-c3ccncc3)sc2-c2nnc[nH]2)c1` (stereo not shown) [Compound 253], the inhibition at 1 µM turned out to be 2% at PI3K gamma (setting [5]) and 27% at PI3K delta (setting [8]). Besides, the inhibition at 1.1 µM on PI3Kalpha (setting [6]) is 20%; on PI3K beta (setting [7]), 64%.

As for `NCc1c[nH]c(-c2sc(-c3ccncc3)nc2Cc2ccc(Cl)cc2)n1` [Compound 255, (2-(4-(4-chlorobenzyl)-2-(pyridin-4-yl)thiazol-5-yl)-1H-imidazol-4-yl)methanamine], the figures for the inhibition at 1 µM at PI3K gamma (setting [5]) and at PI3K delta (setting [8]) were 5% and 39%, respectively. Also, the results for the inhibition at 1.1 µM on PI3Kalpha (setting [6]) and at PI3K beta (setting [7]) were 0% and 55%, respectively.

In the case of `N#Cc1c(N2CCOCC2)sc(C(=O)O)c1Cc1ccc2ccc(F)cc2c1` [Compound 287], at PI3K gamma (setting [5]), the inhibition at 1 µM came out at 69%. The results for the inhibition at 1.1 µM on PI3Kalpha (setting [6]) and on PI3K beta (setting [7]) were 84% and 109%, respectively.

`N#Cc1c(N2CCOCC2)sc(C(=O)O)c1Cc1ccc2ccccc2c1F` [Compound 293]: the inhibition at 1 µM at PI3K gamma (setting [5]) is 78%. The inhibition at 1.1 µM at PI3Kalpha (setting [6]) is 98%; at PI3K beta (setting [7]), 108%.

`N#Cc1c(N2CCOCC2)sc(C(=O)O)c1Cc1cc2ccccc2cc1F` [Compound 295]: the inhibition at 1 µM on PI3K gamma (setting [5]) is 76%. The inhibition at 1.1 µM at PI3Kalpha (setting [6]) is 101%; at PI3K beta (setting [7]) it was 111%.

Take `N#Cc1c(N2CCOCC2)sc(C(=O)O)c1Cc1cc(F)c(Cl)cc1F` [Compound 300]: the inhibition at 1 µM on PI3K gamma (setting [5]) stood at 46%. The inhibition at 1.1 µM turned out to be 44% at PI3Kalpha (setting [6]) and 105% at PI3K beta (setting [7]).

Take `N#Cc1c(N2CCOCC2)sc(C(=O)O)c1Cc1ccc2c(c1)CCCC2` [Compound 305]: the inhibition at 1 µM on PI3K gamma (setting [5]) worked out at 37%. Further, the results for the inhibition at 1.1 µM at PI3Kalpha (setting [6]) and at PI3K beta (setting [7]) were 37% and 106%, respectively.

For `N#Cc1c(N2CCOCC2)sc(C(N)=O)c1C(F)(F)c1ccc2ccccc2c1` [Compound 307], the inhibition at 1 µM on PI3K gamma (setting [5]) turned out to be 9%. For the same molecule, the inhibition at 1.1 µM on PI3Kalpha (setting [6]) is 15%; on PI3K beta (setting [7]), 84%.

Take `N#Cc1c(N2CCOCC2)sc(C(=O)O)c1C(F)(F)c1ccc2ccccc2c1` [Compound 308]: the inhibition at 1 µM at PI3K gamma (setting [5]) is 39%. The inhibition at 1.1 µM turned out to be 41% at PI3Kalpha (setting [6]) and 106% at PI3K beta (setting [7]).

Turning to `N#Cc1c(N2CCOCC2)sc(C(=O)O)c1Cc1cc(F)c2ccccc2c1` [Compound 324], the inhibition at 1 µM on PI3K gamma (setting [5]) was found to be 67%. Besides, the inhibition at 1.1 µM at PI3Kalpha (setting [6]) worked out at 107%; at PI3K beta (setting [7]), 118%.

Regarding `COC(c1ccc2ccccc2c1)c1c(C(=O)O)sc(N2CCOCC2)c1C#N` (stereo not shown) [Compound 337], at PI3K gamma (setting [5]), the inhibition at 1 µM was found to be 11%. Besides, the inhibition at 1.1 µM at PI3Kalpha (setting [6]) was 14%; at PI3K beta (setting [7]), 60%.

Regarding `N#Cc1c(N2CCOCC2)sc(C(=O)O)c1Cc1ccc2c(F)cccc2c1` [Compound 343], the inhibition at 1 µM at PI3K gamma (setting [5]) amounted to 67%. For the same molecule, the inhibition at 1.1 µM turned out to be 84% on PI3Kalpha (setting [6]) and 110% at PI3K beta (setting [7]).

As to `N#Cc1c(N2CCOCC2)sc(C(=O)O)c1C(F)c1ccc2ccccc2c1` (stereo not shown) [Compound 345], the inhibition at 1 µM at PI3K gamma (setting [5]) is 62%. For the same molecule, on PI3K beta (setting [7]), the inhibition at 1.1 µM was found to be 105%.

`N#Cc1c(N2CCOCC2)sc(-c2nnn[nH]2)c1C(F)(F)c1ccc2ccccc2c1` [Compound 349]: the inhibition at 1 µM on PI3K gamma (setting [5]) stood at 42%. The values for the inhibition at 1.1 µM on PI3Kalpha (setting [6]) and at PI3K beta (setting [7]) were 43% and 108%, respectively.

For `c1ccc2cc(Cc3nc(N4CCOCC4)sc3-c3nnn[nH]3)ccc2c1` [Compound 360, 4-[4-(2-naphthylmethyl)-5-(1H-tetrazol-5-yl)-1,3-thiazol-2-yl]morpholine], the values for the inhibition at 1 µM on PI3K gamma (setting [5]) and at PI3K delta (setting [8]) were 49% and 110%, respectively. The inhibition at 1.1 µM on PI3Kalpha (setting [6]) was 30%; on PI3K beta (setting [7]), 106%.
